Test results published in patent JP2017105729A, “ミトコンドリア病の治療剤” (Tohoku University NUC, priority 2015, dated 2017).

What was measured:
[1] = tested on: erythropoietin, human liver cancer cell line Hep3B [エリスロポエチン産生ヒト肝臓癌細胞株Hep3B]; test: Erythropoietin production in Hep3B cells in the presence of TNFα (ELISA); assay type: cell-based; settings: compound 3 μM with TNFα 220 μg/mL, 24 h, 20% O2; relative to DMSO; Fig. 2
[2] = tested on: Leber disease patient-derived fibroblasts [Leber病患者由来線維芽細胞]; test: Suppression of oxidative-stress (BSO) induced cell death of Leber disease patient fibroblasts: cell viability (MTT assay, Cell Counting Kit-8); assay type: cell-based; settings: for minimal effective concentration: Fibroblast, BSO 100 μM 24 h, then compound (0.1, 0.3, 1, 3, 10 μM) 48 h, n=4, Fig. 1B, read-out: concentration at which the decrease in cell viability is suppressed
[3] = tested on: Leber disease patient-derived fibroblasts [Leber病患者由来線維芽細胞]; test: Suppression of cytotoxicity in BSO-treated Leber disease patient fibroblasts: released LDH activity (Cytotoxicity LDH Assay Kit-WST); assay type: cell-based; settings: BSO 100 μM 24 h, then compound (0.1, 0.3, 1, 3, 10 μM) 48 h, n=4; LDH release; Fig. 1C
[4] = tested on: erythropoietin [エリスロポエチン]; settings: reported in Patent Literature 2; cited from earlier work
[5] = tested on: mitochondrial disease [ミトコンドリア病]; settings: reported in Patent Literature 2; cited from earlier work
[6] = tested on: mitochondrial encephalomyopathy patients [ミトコンドリア脳筋症患者]; settings: cited from earlier work

## O=C(CC(C(=O)O)c1c[nH]c2cccc(Cl)c12)c1ccc(F)cc1F (centres unmarked) [本件化合物#5, 2−(4−クロロ−1H−インドール−3−イル)−4−(2,4−ジフルオロフェニル)−4−オキソブタン酸]
[1]
  erythropoietin expression level: 増加する

## CCCCS(=N)(=O)CC[C@H](N)C(=O)O (stereo partly drawn) [BSO, L-Buthionine sulphoximine]
[2]; BSO 100 μM (glutathione synthesis inhibitor) alone, Fig. 1A
  cell viability: 細胞生存率が低下する

## Cc1ccc2[nH]cc(C(CC(=O)c3ccc(F)cc3F)C(=O)O)c2c1 (centres unmarked) [本件化合物#6, 4−(2,4−ジフルオロフェニル)−2−(5−メチル−1H−インドール−3−イル)−4−オキソブタン酸]
[1]
  erythropoietin expression level: 増加する
[3]
  concentration at which the cytotoxicity level is lowered: ≥ 1 µM
[2]
  minimal effective concentration: ≥ 1 µM

## O=C(CC(C(=O)O)c1c[nH]c2ccccc12)c1ccc(F)cc1 (centres unmarked) [比較例化合物#4, 4−(4−フルオロフェニル)−2−(1H−インドール−3−イル)−4−オキソ−ブタン酸]
[4]
  effect of enhancing erythropoietin expression / promoting erythropoietin production: エリスロポエチン産生の促進効果
[5]
  therapeutic effect on mitochondrial disease: ミトコンドリア病の治療効果
[3]
  concentration at which the cytotoxicity level is lowered: ≥ 10 µM
[2]
  minimal effective concentration: ≥ 10 µM

## O=C(CC(C(=O)O)c1c[nH]c2ccccc12)c1ccc(F)cc1F (centres unmarked) [4−(2,4−ジフルオロフェニル)−2−(1H−インドール−3−イル)−4−オキソ−ブタン酸]
[4]
  effect of enhancing erythropoietin expression / promoting erythropoietin production: エリスロポエチン発現増強効果
[5]
  therapeutic effect on mitochondrial disease: ミトコンドリア病の治療効果

## O=C(CC(C(=O)O)c1c[nH]c2cc(F)ccc12)c1ccc(F)cc1F (centres unmarked) [本件化合物#1, 4−(2,4−ジフルオロフェニル)−2−(6−フルオロ−1H−インドール−3−イル)−4−オキソブタン酸]
[1]
  erythropoietin expression level: 増加する

## CC1=NN(c2ccccc2)C(=O)C1 [エダラボン, 3−メチル−1−フェニル−2−ピラゾリン−5−オン]
[6]
  effect of stopping enlargement of infarct: 梗塞の拡大を停止する効果
  effect of suppressing edema: 浮腫を抑制する効果
